Results taken from patent EP4722207A1, “OXOISOINDOLINYL-SUBSTITUTED TETRAHYDROPYRIMIDINEDIONE DERIVATIVE AND USE THEREOF” (Gluetacs Therapeutics (Shanghai) Co., Ltd., priority 2023, dated 2024).

Tests used:
Type in all cases: cell-based
[1] = target: T1, GSPT1 (Homo sapiens, UniProt P15170+Q96SW2); assay: Western-blot assay, substrate protein degradation in hPBMCs: GSPT1; conditions: for GSPT1 substrate protein remaining %: compounds at 50 nM and 500 nM, 24 hours; for substrate protein remaining % GSPT1: 24 hours of compound treatment, 50 nM and 500 nM
T1 construct: effects of the compounds of the present disclosure on the expression of target proteins in cells; endogenous in cells; host or cells: human PBMCs (hPBMCs)
T1 sequence (P15170 whole entry): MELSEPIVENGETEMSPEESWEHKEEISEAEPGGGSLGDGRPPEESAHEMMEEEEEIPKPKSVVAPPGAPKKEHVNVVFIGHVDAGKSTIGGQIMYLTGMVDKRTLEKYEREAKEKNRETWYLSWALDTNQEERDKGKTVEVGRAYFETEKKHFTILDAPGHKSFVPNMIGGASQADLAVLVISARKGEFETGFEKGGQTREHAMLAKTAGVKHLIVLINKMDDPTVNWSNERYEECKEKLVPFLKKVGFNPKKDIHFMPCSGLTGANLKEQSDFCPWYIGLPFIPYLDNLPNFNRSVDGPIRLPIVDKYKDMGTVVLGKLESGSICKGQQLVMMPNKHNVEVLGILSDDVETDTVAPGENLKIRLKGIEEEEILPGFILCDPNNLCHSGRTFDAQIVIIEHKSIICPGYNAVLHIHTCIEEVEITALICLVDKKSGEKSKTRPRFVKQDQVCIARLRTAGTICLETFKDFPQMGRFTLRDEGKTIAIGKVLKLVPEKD
T1 sequence (Q96SW2 whole entry): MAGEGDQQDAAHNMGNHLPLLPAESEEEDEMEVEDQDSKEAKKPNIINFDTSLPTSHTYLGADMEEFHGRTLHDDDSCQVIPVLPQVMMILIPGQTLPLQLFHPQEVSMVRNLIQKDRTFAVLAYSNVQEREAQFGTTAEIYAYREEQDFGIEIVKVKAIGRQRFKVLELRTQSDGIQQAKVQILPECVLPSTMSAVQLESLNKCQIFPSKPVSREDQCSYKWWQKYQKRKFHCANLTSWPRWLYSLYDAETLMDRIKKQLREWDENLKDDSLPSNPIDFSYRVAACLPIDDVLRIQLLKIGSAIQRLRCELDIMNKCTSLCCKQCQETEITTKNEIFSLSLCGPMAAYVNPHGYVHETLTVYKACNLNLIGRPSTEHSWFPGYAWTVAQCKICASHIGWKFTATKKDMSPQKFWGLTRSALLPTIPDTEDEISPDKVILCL
T1 sequence (Q16531 whole entry partner): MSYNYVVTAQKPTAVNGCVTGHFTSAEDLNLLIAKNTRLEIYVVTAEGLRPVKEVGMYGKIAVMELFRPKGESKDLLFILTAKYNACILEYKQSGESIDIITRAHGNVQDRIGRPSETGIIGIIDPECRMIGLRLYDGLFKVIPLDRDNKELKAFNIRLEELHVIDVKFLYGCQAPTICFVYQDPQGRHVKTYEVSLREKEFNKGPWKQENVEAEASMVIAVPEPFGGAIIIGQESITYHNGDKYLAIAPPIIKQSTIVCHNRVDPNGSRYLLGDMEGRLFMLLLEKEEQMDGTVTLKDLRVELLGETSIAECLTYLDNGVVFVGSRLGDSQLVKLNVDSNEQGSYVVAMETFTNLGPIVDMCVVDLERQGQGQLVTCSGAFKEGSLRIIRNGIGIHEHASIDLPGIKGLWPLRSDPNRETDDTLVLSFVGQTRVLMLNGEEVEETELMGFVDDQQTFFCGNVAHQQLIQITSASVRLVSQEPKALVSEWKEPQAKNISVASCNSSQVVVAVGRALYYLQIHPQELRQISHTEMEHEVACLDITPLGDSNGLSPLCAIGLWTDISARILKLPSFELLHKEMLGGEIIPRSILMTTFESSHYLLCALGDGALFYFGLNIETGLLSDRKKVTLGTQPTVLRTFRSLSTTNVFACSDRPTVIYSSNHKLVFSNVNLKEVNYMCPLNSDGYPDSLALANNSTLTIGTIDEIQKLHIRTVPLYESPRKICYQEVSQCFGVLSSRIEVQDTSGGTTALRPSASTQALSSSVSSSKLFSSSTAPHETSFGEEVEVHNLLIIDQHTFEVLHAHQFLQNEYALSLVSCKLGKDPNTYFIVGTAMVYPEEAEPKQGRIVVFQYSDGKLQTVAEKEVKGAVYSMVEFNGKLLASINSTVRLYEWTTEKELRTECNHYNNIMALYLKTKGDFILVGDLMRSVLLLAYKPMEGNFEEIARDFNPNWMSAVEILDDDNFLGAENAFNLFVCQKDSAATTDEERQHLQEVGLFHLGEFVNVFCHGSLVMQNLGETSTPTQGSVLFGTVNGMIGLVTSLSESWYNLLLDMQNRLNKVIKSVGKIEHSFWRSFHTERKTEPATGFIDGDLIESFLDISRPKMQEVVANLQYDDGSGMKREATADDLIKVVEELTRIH

[2] = target: T2, IKZF3 (Homo sapiens, UniProt Q96SW2+Q9UKT9); assay: Western-blot assay, substrate protein degradation in hPBMCs: IKZF3; conditions: for IKZF3 substrate protein remaining %: compounds at 50 nM and 500 nM, 24 hours; for substrate protein remaining % IKZF3: 24 hours of compound treatment, 50 nM and 500 nM
T2 construct: effects of the compounds of the present disclosure on the expression of target proteins in cells; endogenous in cells; host or cells: human PBMCs (hPBMCs)

[3] = target: T3, CK1α (Homo sapiens, UniProt P48729+Q96SW2); assay: Western-blot assay, substrate protein degradation in hPBMCs: CK1α; conditions: for CK1α substrate protein remaining %: compounds at 50 nM and 500 nM, 24 hours; for substrate protein remaining % CK1α: 24 hours of compound treatment, 50 nM and 500 nM
T3 construct: effects of the compounds of the present disclosure on the expression of target proteins in cells; endogenous in cells; host or cells: human PBMCs (hPBMCs)
T3 sequence (P48729 whole entry): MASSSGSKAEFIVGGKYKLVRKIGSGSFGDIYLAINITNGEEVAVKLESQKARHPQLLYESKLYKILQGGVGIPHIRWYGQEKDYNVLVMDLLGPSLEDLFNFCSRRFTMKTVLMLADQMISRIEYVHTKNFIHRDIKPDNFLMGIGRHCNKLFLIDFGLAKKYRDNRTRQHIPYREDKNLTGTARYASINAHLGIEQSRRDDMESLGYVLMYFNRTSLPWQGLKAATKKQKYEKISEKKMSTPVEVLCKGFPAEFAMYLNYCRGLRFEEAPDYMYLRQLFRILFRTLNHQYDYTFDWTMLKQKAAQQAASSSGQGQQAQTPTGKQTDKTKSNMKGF
T3 sequence (Q96SW2 whole entry): as the sequence (Q96SW2 whole entry) above
T3 sequence (Q16531 whole entry partner): as the sequence (Q16531 whole entry partner) above

[4] = target: T4, IKZF2 (Homo sapiens, UniProt Q96SW2+Q9UKS7); assay: Western-blot assay, substrate protein degradation in hPBMCs: IKZF2; conditions: for IKZF2 substrate protein remaining %: compounds at 50 nM and 500 nM, 24 hours; for substrate protein remaining % IKZF2: 24 hours of compound treatment, 50 nM and 500 nM
T4 construct: effects of the compounds of the present disclosure on the expression of target proteins in cells; endogenous in cells; host or cells: human PBMCs (hPBMCs)
T4 sequence (Q9UKS7 whole entry): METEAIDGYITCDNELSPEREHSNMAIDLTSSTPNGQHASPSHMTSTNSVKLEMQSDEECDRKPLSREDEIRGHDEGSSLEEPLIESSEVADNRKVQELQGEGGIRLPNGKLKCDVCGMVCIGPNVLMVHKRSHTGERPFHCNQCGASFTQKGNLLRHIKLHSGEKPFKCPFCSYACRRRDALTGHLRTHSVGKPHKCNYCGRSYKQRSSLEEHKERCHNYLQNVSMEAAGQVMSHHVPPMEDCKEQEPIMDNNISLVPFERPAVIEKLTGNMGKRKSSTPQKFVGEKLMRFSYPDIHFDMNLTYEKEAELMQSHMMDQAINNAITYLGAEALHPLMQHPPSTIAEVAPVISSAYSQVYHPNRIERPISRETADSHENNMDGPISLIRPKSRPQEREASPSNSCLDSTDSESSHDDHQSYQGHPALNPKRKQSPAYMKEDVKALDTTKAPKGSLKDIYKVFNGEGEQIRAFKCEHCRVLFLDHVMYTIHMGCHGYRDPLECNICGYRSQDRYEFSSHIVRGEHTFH
T4 sequence (Q96SW2 whole entry): as the sequence (Q96SW2 whole entry) above
T4 sequence (Q16531 whole entry partner): as the sequence (Q16531 whole entry partner) above

[5] = target: T5, IKZF1 (Homo sapiens, UniProt Q13422+Q96SW2); assay: Western-blot assay, substrate protein degradation in hPBMCs: IKZF1; conditions: for IKZF1 substrate protein remaining %: compounds at 50 nM and 500 nM, 24 hours; for substrate protein remaining % IKZF1: 24 hours of compound treatment, 50 nM and 500 nM
T5 construct: effects of the compounds of the present disclosure on the expression of target proteins in cells; endogenous in cells; host or cells: human PBMCs (hPBMCs)
T5 sequence (Q13422 whole entry): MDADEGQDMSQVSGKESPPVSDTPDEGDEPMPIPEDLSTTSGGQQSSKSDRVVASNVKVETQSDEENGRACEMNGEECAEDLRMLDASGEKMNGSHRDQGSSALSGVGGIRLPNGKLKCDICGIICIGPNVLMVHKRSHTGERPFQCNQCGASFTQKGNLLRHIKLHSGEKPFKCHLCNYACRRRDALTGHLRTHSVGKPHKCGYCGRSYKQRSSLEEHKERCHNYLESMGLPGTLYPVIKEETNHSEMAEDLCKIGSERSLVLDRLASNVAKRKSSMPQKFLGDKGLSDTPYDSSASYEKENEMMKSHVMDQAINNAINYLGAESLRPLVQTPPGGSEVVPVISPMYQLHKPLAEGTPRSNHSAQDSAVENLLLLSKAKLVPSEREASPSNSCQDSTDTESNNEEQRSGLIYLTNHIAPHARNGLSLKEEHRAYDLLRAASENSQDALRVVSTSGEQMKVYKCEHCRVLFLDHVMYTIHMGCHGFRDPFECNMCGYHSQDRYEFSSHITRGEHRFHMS
T5 sequence (Q96SW2 whole entry): as the sequence (Q96SW2 whole entry) above
T5 sequence (Q16531 whole entry partner): as the sequence (Q16531 whole entry partner) above

[6] = target: T6, WEE1 (Homo sapiens, UniProt P30291+Q96SW2); assay: Western-blot assay, substrate protein degradation in hPBMCs: WEE1; conditions: for WEE1 substrate protein remaining %: compounds at 50 nM and 500 nM, 24 hours; for substrate protein remaining % WEE1: 24 hours of compound treatment, 50 nM and 500 nM
T6 construct: effects of the compounds of the present disclosure on the expression of target proteins in cells; endogenous in cells; host or cells: human PBMCs (hPBMCs)
T6 sequence (P30291 whole entry): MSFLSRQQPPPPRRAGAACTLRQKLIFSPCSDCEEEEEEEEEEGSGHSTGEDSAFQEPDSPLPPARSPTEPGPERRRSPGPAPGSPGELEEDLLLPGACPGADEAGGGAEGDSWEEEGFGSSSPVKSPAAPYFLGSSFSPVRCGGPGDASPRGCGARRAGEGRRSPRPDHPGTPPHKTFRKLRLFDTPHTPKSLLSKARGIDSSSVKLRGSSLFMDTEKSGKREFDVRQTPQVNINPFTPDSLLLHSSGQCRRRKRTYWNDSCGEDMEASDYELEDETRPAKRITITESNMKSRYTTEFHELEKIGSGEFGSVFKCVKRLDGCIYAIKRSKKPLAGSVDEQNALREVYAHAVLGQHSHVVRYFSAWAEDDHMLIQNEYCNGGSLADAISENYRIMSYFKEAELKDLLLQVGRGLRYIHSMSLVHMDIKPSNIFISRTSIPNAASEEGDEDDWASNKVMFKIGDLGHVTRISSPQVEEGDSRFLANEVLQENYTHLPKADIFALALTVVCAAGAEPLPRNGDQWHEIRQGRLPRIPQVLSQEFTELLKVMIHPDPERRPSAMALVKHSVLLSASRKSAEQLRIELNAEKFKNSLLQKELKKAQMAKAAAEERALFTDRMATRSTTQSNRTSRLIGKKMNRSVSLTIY
T6 sequence (Q96SW2 whole entry): as the sequence (Q96SW2 whole entry) above
T6 sequence (Q16531 whole entry partner): as the sequence (Q16531 whole entry partner) above

Row | SMILES | GSPT1 substrate protein remaining % [1] | IKZF3 substrate protein remaining % [2] | CK1α substrate protein remaining % [3] | IKZF2 substrate protein remaining % [4] | IKZF1 substrate protein remaining % [5] | WEE1 substrate protein remaining % [6] | substrate protein remaining % GSPT1 [1] | substrate protein remaining % IKZF3 [2] | substrate protein remaining % CK1α [3] | substrate protein remaining % IKZF2 [4] | substrate protein remaining % IKZF1 [5] | substrate protein remaining % WEE1 [6]
1 | O=C1CCN(N2Cc3cc(CN4CCN(c5cnnc(Cl)c5Cl)CC4)ccc3C2=O)C(=O)N1 [GT-07029, 1-(5-((4-(5,6-dichloropyridazin-4-yl)piperazin-1-yl)methyl)-1-oxoisoindolin-2-yl)dihydropyrimidine-2,4(1H,3H)-dione] | A ("A" is defined as 0% ≤ substrate protein remaining % ≤ 80%) | B ("B" is defined as 80%< substrate protein remaining %≤ 100%) | B ("B" is defined as 80%< substrate protein remaining %≤ 100%) | A ("A" is defined as 0% ≤ substrate protein remaining % ≤ 80%) | B ("B" is defined as 80%< substrate protein remaining %≤ 100%) | A ("A" is defined as 0% ≤ substrate protein remaining % ≤ 80%) | – | – | – | – | – | –
2 | O=C1CCN(N2C(=O)c3ccc(CN4CC=C(c5ncnc6scc(-c7ccccc7)c56)CC4)cc3C2=O)C(=O)N1 [GT-08431, 2-(2,4-dioxotetrahydropyrimidin-1(2H)-yl)-5-((4-(5-phenylthieno[2,3-d]pyrimidin-4-yl)-3,6-dihydropyridin-1(2H)-yl)methyl)isoindoline-1,3-dione] | – | – | – | – | – | – | B (80%< substrate protein remaining %≤ 100%) | B (80%< substrate protein remaining %≤ 100%) | B (80%< substrate protein remaining %≤ 100%) | A (0% ≤ substrate protein remaining % ≤ 80%) | B (80%< substrate protein remaining %≤ 100%) | A (0% ≤ substrate protein remaining % ≤ 80%)
3 | O=C1CCN(N2C(=O)c3ccc(CN4CCC(c5ccoc5)CC4)cc3C2=O)C(=O)N1 [GT-07422, 2-(2,4-dioxotetrahydropyrimidin-1(2H)-yl)-5-((4-(furan-3-yl)piperidin-1-yl)methyl)isoindoline-1,3-dione] | – | – | – | – | – | – | A (0% ≤ substrate protein remaining % ≤ 80%) | B (80%< substrate protein remaining %≤ 100%) | A (0% ≤ substrate protein remaining % ≤ 80%) | B (80%< substrate protein remaining %≤ 100%) | B (80%< substrate protein remaining %≤ 100%) | B (80%< substrate protein remaining %≤ 100%)
4 | Cc1nc(C2=CCN(Cc3ccc4c(c3)C(=O)N(N3CCC(=O)NC3=O)C4=O)CC2)c2c3c(sc2n1)CCC3 [GT-08435, 2-(2,4-dioxotetrahydropyrimidin-1(2H)-yl)-5-((4-(2-methyl-6,7-dihydro-5H-cyclopenta[4,5]thieno[2,3-d]pyrimidin-4-yl)-3,6-dihydropyridin-1(2H)-yl)methyl)isoindoline-1,3-dione] | – | – | – | – | – | – | A (0% ≤ substrate protein remaining % ≤ 80%) | A (0% ≤ substrate protein remaining % ≤ 80%) | B (80%< substrate protein remaining %≤ 100%) | B (80%< substrate protein remaining %≤ 100%) | A (0% ≤ substrate protein remaining % ≤ 80%) | A (0% ≤ substrate protein remaining % ≤ 80%)
5 | O=C1CCN(N2C(=O)c3ccc(CN4CCCN(C(c5ccccc5)c5ccccc5)CC4)cc3C2=O)C(=O)N1 [GT-07295, 5-((4-benzhydryl-1,4-diazepan-1-yl)methyl)-2-(2,4-dioxotetrahydropyrimidin-1(2H)-yl)isoindoline-1,3-dione] | A ("A" is defined as 0% ≤ substrate protein remaining % ≤ 80%) | B ("B" is defined as 80%< substrate protein remaining %≤ 100%) | B ("B" is defined as 80%< substrate protein remaining %≤ 100%) | B ("B" is defined as 80%< substrate protein remaining %≤ 100%) | B ("B" is defined as 80%< substrate protein remaining %≤ 100%) | B ("B" is defined as 80%< substrate protein remaining %≤ 100%) | – | – | – | – | – | –
6 | O=C1CCN(N2C(=O)c3ccc(CN4CCN(c5ccncc5Br)CC4)cc3C2=O)C(=O)N1 [GT-07163, 5-((4-(3-bromopyridin-4-yl)piperazin-1-yl)methyl)-2-(2,4-dioxotetrahydropyrimidin-1(2H)-yl)isoindoline-1,3-dione] | A ("A" is defined as 0% ≤ substrate protein remaining % ≤ 80%) | B ("B" is defined as 80%< substrate protein remaining %≤ 100%) | B ("B" is defined as 80%< substrate protein remaining %≤ 100%) | A ("A" is defined as 0% ≤ substrate protein remaining % ≤ 80%) | B ("B" is defined as 80%< substrate protein remaining %≤ 100%) | B ("B" is defined as 80%< substrate protein remaining %≤ 100%) | – | – | – | – | – | –
7 | O=C1CCN(N2Cc3cc(CN4CCN(c5ccc(F)c(F)c5)CC4)ccc3C2=O)C(=O)N1 [GT-06781, 1-(5-((4-(3,4-difluorophenyl)piperazin-1-yl)methyl)-1-oxoisoindolin-2-yl)dihydropyrimidine-2,4(1H,3H)-dione] | A ("A" is defined as 0% ≤ substrate protein remaining % ≤ 80%) | B ("B" is defined as 80%< substrate protein remaining %≤ 100%) | A ("A" is defined as 0% ≤ substrate protein remaining % ≤ 80%) | B ("B" is defined as 80%< substrate protein remaining %≤ 100%) | B ("B" is defined as 80%< substrate protein remaining %≤ 100%) | B ("B" is defined as 80%< substrate protein remaining %≤ 100%) | – | – | – | – | – | –
8 | O=C1CCN(N2C(=O)c3ccc(CN4CCC(c5ccnc(F)c5F)CC4)cc3C2=O)C(=O)N1 [GT-07493, 5-((4-(2,3-difluoropyridin-4-yl)piperidin-1-yl)methyl)-2-(2,4-dioxotetrahydropyrimidin-1(2H)-yl)isoindoline-1,3-dione] | – | – | – | – | – | – | B (80%< substrate protein remaining %≤ 100%) | A (0% ≤ substrate protein remaining % ≤ 80%) | A (0% ≤ substrate protein remaining % ≤ 80%) | B (80%< substrate protein remaining %≤ 100%) | B (80%< substrate protein remaining %≤ 100%) | B (80%< substrate protein remaining %≤ 100%)
